1 compound from ChEMBL document CHEMBL5120763 (J Nat Prod, 2022) can be followed below.

Activity calls are given as the source filed them. No cut-off for these calls is given here.

Series [1] concerns NCI-H1299. Put plainly: Induction of apoptosis in human NCI-H1299 cells at 0.25 to 1 uM incubated for 24 hrs by FITC annexin V/PI double-staining based flow cytometry. The format is functional, cell-based. Particulars: dose 0.25-1 µM, DDE = dose-dependent effect.
In series [2] the test system is PC-9. Put plainly: Induction of apoptosis in human PC-9 cells at 0.25 to 1 uM incubated for 48 hrs by FITC annexin V/PI double-staining based flow cytometry. In kind it is functional, cell-based. Particulars: dose 0.25-1 µM, DDE = dose-dependent effect.
The test system of series [3] is NCI-H1299. Put plainly: Induction of apoptosis in human NCI-H1299 cells assessed as increase in cleaved PARP1 levels at 0.25 to 1 uM incubated for 24 hrs by Western blot analysis. The format is functional, cell-based. Particulars: dose 0.25-1 µM.
The test system of series [4] is NCI-H1299. Put plainly: Induction of apoptosis in human NCI-H1299 cells assessed as reduction in Bcl2 levels at 0.25 to 1 uM incubated for 24 hrs by Western blot analysis. The format is functional, cell-based. Particulars: dose 0.25-1 µM.
Series [5] deals with PC-9. As to the kind of experiment: Induction of apoptosis in human PC-9 cells assessed as increase in cleaved PARP1 levels at 0.25 to 1 uM incubated for 48 hrs by Western blot analysis. In kind it is functional, cell-based. Conditions: dose 0.25-1 µM.
Series [6] deals with PC-9. As to the kind of experiment: Induction of apoptosis in human PC-9 cells assessed as reduction in Bcl2 levels at 0.25 to 1 uM incubated for 48 hrs by Western blot analysis. Particulars: dose 0.25-1 µM. The format is functional, cell-based.
Series [7] concerns PC-9. As to the kind of experiment: Induction of apoptosis in human PC-9 cells assessed as late apoptosis cells level at 1 uM incubated for 48 hrs by FITC annexin V/PI double-staining based flow cytometry (reference value: 2.07%). The format is functional.
Series [8] has as its system PC-9. As to the kind of experiment: Induction of apoptosis in human PC-9 cells assessed as late apoptosis cells level at 0.25 uM incubated for 48 hrs by FITC annexin V/PI double-staining based flow cytometry (reference value: 2.07%). In kind it is functional.
Series [9] concerns PC-9. Put plainly: Induction of apoptosis in human PC-9 cells assessed as late apoptosis cells level at 0.5 uM incubated for 48 hrs by FITC annexin V/PI double-staining based flow cytometry (reference value: 2.07%). The format is functional.
Series [10] has as its system NCI-H1299. Put plainly: Induction of apoptosis in human NCI-H1299 cells assessed as late apoptosis cells level at 0.25 uM incubated for 24 hrs by FITC annexin V/PI double-staining based flow cytometry (reference value: 4.27%). In kind it is functional.
The test system of series [11] is NCI-H1299. As to the kind of experiment: Induction of apoptosis in human NCI-H1299 cells assessed as late apoptosis cells level at 0.5 uM incubated for 24 hrs by FITC annexin V/PI double-staining based flow cytometry (reference value: 4.27%). The format is functional.
Series [12] concerns NCI-H1299. As to the kind of experiment: Induction of apoptosis in human NCI-H1299 cells assessed as late apoptosis cells level at 1 uM incubated for 24 hrs by FITC annexin V/PI double-staining based flow cytometry (reference value: 4.27%). The format is functional.
In series [13] the test system is A549. Put plainly: Antitumor activity against human A549 cells xenografted in BALB/c nude mouse assessed as reduction in tumor size at 2 mg/kg, ip dosed every 2 days for total of 18 days. The format is functional, organism-based. Particulars: time 18.0 day.
The nature of series [14]: Toxicity in BALB/c nude mouse xenografted with human A549 cells assessed as induction of body weight loss at 1 to 2 mg/kg, ip dosed every 2 days for total of 18 days. Particulars: in vivo, 432 h, dose 1-2 mg/kg, time 18 day. In kind it is organism-based.
Series [15] can be described thus: Toxicity in BALB/c nude mouse xenografted with human A549 cells assessed as toxic effect on heart at 1 to 2 mg/kg, ip dosed every 2 days for total of 18 days by H and E staining. The format is organism-based. Conditions: in vivo, dose 1-2 mg/kg.
Series [16] in a line: Toxicity in BALB/c nude mouse xenografted with human A549 cells assessed as toxic effect on liver at 1 to 2 mg/kg, ip dosed every 2 days for total of 18 days by H and E staining. In kind it is organism-based. Particulars: in vivo, 432 h, dose 1-2 mg/kg, time 18 day.
A short description of series [17]: Toxicity in BALB/c nude mouse xenografted with human A549 cells assessed as toxic effect on lung at 1 to 2 mg/kg, ip dosed every 2 days for total of 18 days by H and E staining. In kind it is organism-based. Conditions: in vivo, 432 h, dose 1-2 mg/kg, time 18 day.
The nature of series [18]: Toxicity in BALB/c nude mouse xenografted with human A549 cells assessed as toxic effect on kidney at 1 to 2 mg/kg, ip dosed every 2 days for total of 18 days by H and E staining. In kind it is organism-based. Particulars: in vivo, 432 h, dose 1-2 mg/kg, time 18 day.
The test system of series [19] is A549. Put plainly: Increase in cleaved PARP1 protein expression levels in tumor of BALB/c nude mouse xenografted with human A549 cells at 1 to 2 mg/kg, ip dosed every 2 days for total of 18 days by Western blot analysis. The format is functional, organism-based. Conditions: dose 1-2 mg/kg, time 18.0 day.

On to `C[C@]12CC[C@H](O)C[C@@]1(O)CC[C@@H]1[C@@H]2CC[C@]2(C)[C@@H](c3ccc(=O)oc3)CC[C@]12O` [TELOCINOBUFAGIN], for which the Activity result was “Dde” with NCI-H1299 [1]; “Dde” in the series on PC-9 [2]; 22.7% with PC-9 [7]; 6.66% with PC-9 [8]; 11.37% in the series on PC-9 [9]; 16.98% with NCI-H1299 [10]. Further, the Activity in the series on NCI-H1299 [11] is given as 25.06%; in the series on NCI-H1299 [12], 38.41%; in series [14], “Non-Toxic”; in series [15], “Non-Toxic”; in series [16], “Non-Toxic”; in series [17] it was “Non-Toxic”. The Activity result in [18] was “Non-Toxic”. Besides, the result with NCI-H1299 [3], in the series on NCI-H1299 [4], with PC-9 [5], in the series with PC-9 [6], in the series on A549 [13] and in the series on A549 [19] was Active.
